Measurements taken from patent US9050268B2, “Functional amphipilic molecule or macromolecule formulations with multiple compartments” (UNIVERSITE d'AIX-MARSEILLE, priority 2009, dated 2015).

What was measured:
[1] = test system: SKOV3 (cisplatin-resistant); experiment: Cytotoxic effects on tumor lines IGROV-1 and SKOV3 (MTS cell viability); assay type: cell-based; details: 24 hours treatment, MTS 48 hours after washing, read-out: concentration necessary to obtain 50% cell death (IC50)
Procedure: (§1) 2500 cells (IGROV1, SKOV3, ovarian adenocarcinoma lines) per well are incubated in 100 μL of the medium with serum in a 96-well plate. After 24 hours the medium is aspirated and the cells are treated with free cisplatin or cisplatin encapsulated in the nanoparticles of Example 10 in 100 μL of the medium without serum at different concentrations (500, 100, 10, 1, 0.1, 0.01, 0.001 μM). After treatment for 24 hours, the medium is removed and the cells are washed twice with 100 μL of PBS then incubated with 100 μL of the medium with serum.
(§2) The absorbance at 490 nm is measured after incubation for 2 to 4 hours at 37° C. The absorbance is proportional to the cell viability.

[2] = test system: cisplatin-sensitive A2780 (Human ovarian carcinoma epithelial tumor); experiment: Cytotoxic effects on tumor lines (MTS cell viability); assay type: cell-based; details: 24 hours treatment, MTS 48 hours after washing, read-out: concentration necessary to obtain 50% cell death (IC50)
Text: (§3) The study consists of determining the concentration inhibiting 50% of cell proliferation (IC50) on a panel of tumor lines, namely • cisplatin-sensitive A2780 (Human ovarian carcinoma epithelial tumor) and cisplatin-resistant A2780/CisPt (Human ovarian carcinoma epithelial tumor) • cisplatin-sensitive IGROV-1 (Human ovarian carcinoma) and cisplatin-resistant IGROV-1/CisPt (Human ovarian carcinoma) • cisplatin-sensitive L1210 (mouse lymphocytic leukemia) and cisplatin-resistant L1210/CisPt (mouse lymphocytic leukemia) […] • NIH: OVCAR3 (ovarian carcinoma), and • P388 (mouse lymphoma)
as §1, with “(ovarian” for “(IGROV1, SKOV3, ovarian”, “lines, etc.)” for “lines)”
as §2

[3] = test system: cisplatin-resistant A2780/CisPt (Human ovarian carcinoma epithelial tumor); experiment: as above; assay type: cell-based; details: cisplatin-resistant line A2780; 24 hours treatment, MTS 48 hours after washing; read-out: concentration necessary to obtain 50% cell death (IC50)
Text: as §3
as §1, with “(ovarian” for “(IGROV1, SKOV3, ovarian”, “lines, etc.)” for “lines)”
as §2

[4] = test system: IGROV1 cells (cisplatin-sensitive ovarian adenocarcinoma line); experiment: Assay of intracellular cisplatin (ICP optical assay after cell lysis); assay type: cell-based, human; details: 10^6 IGROV1 cells, 100 μM, 2 hours
Procedure: (§4) IGROV1 cells (cisplatin-sensitive ovarian adenocarcinoma line) at 80% confluence (dish 10 cm in diameter) are treated with […] of free cisplatin or cisplatin encapsulated in the nanoparticles of Example 10 for 2, 4 or 6 hours. On completion of this treatment two washings with PBS are carried out. The cells are treated with trypsin and resuspended in PBS. Two washings of the cell suspensions with PBS are carried out (centrifugation 1000 rpm/1 min). The cells are suspended in 1 mL of PBS and counted.
(§5) 10^6 cells are lysed with 500 μL of the cell lysis solution (lysis buffer from SIGMA). The volume is topped up to 5 mL with milli-Q water with 1% HNO3 acid.

[5] = test system: IGROV1 (cisplatin-sensitive); experiment: Cytotoxic effects on tumor lines IGROV-1 and SKOV3 (MTS cell viability); assay type: cell-based, human; details: 24 hours treatment, MTS 48 hours after washing, read-out: concentration necessary to obtain 50% cell death (IC50)
Procedure: as §1, §2

[6] = test system: SKV03 cells (cisplatin-resistant ovarian adenocarcinoma line); experiment: Assay of intracellular cisplatin (ICP optical assay after cell lysis); assay type: cell-based; details: 10^6 cells SKOV3, 100 μM, 2 hours
Procedure: as §4
The same procedure is followed with SKV03 cells (cisplatin-resistant ovarian adenocarcinoma line).
as §5

N.N.[Cl][Pt][Cl] [free cisplatin, cisplatin]
IC50 [1]: 4.3 µM | IC50 [2]: 4.68 µM | IC50 [3]: 29.2 µM | cisplatin internalized [4]: 0.5 nmol | IC50 [5]: 2410 nM | cisplatin internalized [6]: 0.5 nmol
